Assay: Chemical stability in temperature and humidity-controlled chamber (Example 2)
Type: physicochemical
Parameters: key to Appearance: U: unchanged
Method: Chemical stability was assessed for two different samples of 5-[(Z)-(5-fluoro-2-oxo-1,2-dihydro-3H-indol-3-ylidene)methyl]-N-[(2S)-2-hydroxy-3-morpholin-4-ylpropyl]-2,4-dimethyl-1H-pyrrole-3-carboxamide maleate salt, polymorph Form 1. Samples were maintained in a temperature and humidity-controlled chamber at 25° C. and 60% relative humidity (Tables 7 and 8) or at 40° C. and 75% relative humidity (Tables 9 and 10). At various time intervals, material was removed and tested for maleate counterion assay, impurities, water content and enantiomeric purity.
The maleate counterion assay was determined by ion exchange chromatography (IEC).
A suitable amount of the maleate salt is dissolved in water (Milli Q grade) and analyzed by IEC, and compared to calibration samples. Under these conditions, the peak due to maleic acid has a retention time of about 11 minutes. The amount of maleic acid in the sample is calculated as: % Assay=(Cs/W)×100 where Cs is the concentration of maleic acid found in the sample, and W is the theoretical sample concentration in the aqueous solution.
The amounts of impurities and degradation products were determined by HPLC, using a Perkin Elmer LC 200 system with a diode array detector. The analytical column was a Waters Xterra RP18, 5 μm, 250×4.6 mm, and the guard column was a Waters Xterra RP18, 5 μm, 20×3.9 mm. Mobile phase A was a mixture of 90% 0.05 M ammonium acetate buffer at pH 5.5 and 10% acetonitrile. Mobile phase B was a mixture of 10% 0.05 M ammonium acetate buffer at pH 5.5 and 90% acetonitrile.
Flow rate was 1 mL/min, injection volume 30 μL, room temperature, 435 nm detection. Under these conditions, the peak due to the maleate salt has a retention time of about 24 minutes. Impurities are characterized by their relative retention time (RRT). The impurity at RRT=0.26 is the E isomer. The other impurities were not characterized.
Enantiomeric purity was determined by HPLC, using a Chiralpak AD analytical column, 10 μm, 250×4.6 mm (Daicel Chemical Industries, Ltd.) using an oven temperature of 30° C., a mobile phase of 2-propanol/heptane/diethylamine (50/50/0.1), an isocratic elution mode, a flow rate of 0.5 mL/min, injection volume of 50 μL, detector wavelength of 265 nm, dilution solvent 2-propanol/heptane (50/50) and a sample concentration of 0.3 mg/mL. Under these conditions, the S isomer has a retention time of about 15.5 minutes, and the R isomer has a retention time of about 22 minutes.
Water content was determined according to USP 25, <921>, Method Ic.

[1] = 25° C. and 60% Relative Humidity, 1 mo.
[2] = 25° C. and 60% Relative Humidity, 3 mo.
[3] = 25° C. and 60% Relative Humidity, 6 mo.
[4] = 25° C. and 60% Relative Humidity, 9 mo.
[5] = 25° C. and 60% Relative Humidity, 12 mo.
[6] = 25° C. and 60% Relative Humidity, Initial
[7] = 40° C. and 75% Relative Humidity, 1 mo.
[8] = 40° C. and 75% Relative Humidity, 3 mo.
[9] = 40° C. and 75% Relative Humidity, 6 mo.
[10] = 40° C. and 75% Relative Humidity, Initial

## Cc1[nH]c(/C=C2\C(=O)Nc3ccc(F)cc32)c(C)c1C(=O)NC[C@H](O)CN1CCOCC1 [Sample A, 5-[(Z)-(5-fluoro-2-oxo-1,2-dihydro-3H-indol-3-ylidene)methyl]-N-[(2S)-2-hydroxy-3-morpholin-4-ylpropyl]-2,4-dimethyl-1H-pyrrole-3-carboxamide]
[1]
  Appearance: U^a
  Assay (% free base equivalent): 97.5 % free base equivalent
  Enantiomeric Purity (%): >99.9%
  Impurities (%) RRT 0.26: 0.28%
  Impurities (%) RRT 0.51: 0.41%
  Impurities (%) RRT 0.71: 0.06%
  Impurities (%) RRT 1.53: 0.11%
  Impurities (%) RRT 1.74: 0.10%
  Impurities (%) RRT 1.84: 0.13%
  Total Impurities (%): 1.09%
  Water Content (%): 0.53%
[2]
  Appearance: U^a
  Assay (% free base equivalent): 98.4 % free base equivalent
  Enantiomeric Purity (%): >99.9%
  Impurities (%) RRT 0.26: 0.05%
  Impurities (%) RRT 0.51: 0.40%
  Impurities (%) RRT 1.53: 0.12%
  Impurities (%) RRT 1.74: 0.09%
  Impurities (%) RRT 1.84: 0.12%
  Total Impurities (%): 0.78%
  Water Content (%): 0.68%
[3]
  Appearance: U^a
  Assay (% free base equivalent): 98.4 % free base equivalent
  Enantiomeric Purity (%): >99.9%
  Impurities (%) RRT 0.26: 0.07%
  Impurities (%) RRT 0.51: 0.42%
  Impurities (%) RRT 1.53: 0.12%
  Impurities (%) RRT 1.74: 0.09%
  Impurities (%) RRT 1.84: 0.12%
  Total Impurities (%): 0.82%
  Water Content (%): 0.46%
[4]
  Appearance: U^a
  Assay (% free base equivalent): 98.4 % free base equivalent
  Enantiomeric Purity (%): >99.9%
  Impurities (%) RRT 0.26: 0.15%
  Impurities (%) RRT 0.51: 0.36%
  Impurities (%) RRT 1.53: 0.12%
  Impurities (%) RRT 1.74: 0.07%
  Impurities (%) RRT 1.84: 0.10%
  Total Impurities (%): 0.77%
  Water Content (%): 0.42%
[5]
  Appearance: U^a
  Assay (% free base equivalent): 98.2 % free base equivalent
  Enantiomeric Purity (%): >99.9%
  Impurities (%) RRT 0.26: 0.06%
  Impurities (%) RRT 0.51: 0.33%
  Impurities (%) RRT 1.53: 0.13%
  Impurities (%) RRT 1.74: 0.07%
  Impurities (%) RRT 1.84: 0.11%
  Total Impurities (%): 0.70%
  Water Content (%): 0.74%
[6]
  Assay (% free base equivalent): 98.7 % free base equivalent
  Enantiomeric Purity (%): >99.9%
  Impurities (%) RRT 0.26: 0.09%
  Impurities (%) RRT 0.51: 0.40%
  Impurities (%) RRT 0.71: 0.05%
  Impurities (%) RRT 1.53: 0.10%
  Impurities (%) RRT 1.74: 0.09%
  Impurities (%) RRT 1.84: 0.10%
  Total Impurities (%): 0.83%
  Water Content (%): 0.55%
[7]
  Appearance: U^a
  Assay (% free base equivalent): 97.9 % free base equivalent
  Enantiomeric Purity (%): 100.00%
  Impurities (%) RRT 0.26: 0.29%
  Impurities (%) RRT 0.51: 0.39%
  Impurities (%) RRT 1.53: 0.11%
  Impurities (%) RRT 1.74: 0.08%
  Impurities (%) RRT 1.84: 0.13%
  Total Impurities (%): 1.00%
  Water Content (%): 0.57%
[8]
  Appearance: U^a
  Assay (% free base equivalent): 98.5 % free base equivalent
  Enantiomeric Purity (%): 100.00%
  Impurities (%) RRT 0.26: 0.05%
  Impurities (%) RRT 0.51: 0.40%
  Impurities (%) RRT 1.53: 0.14%
  Impurities (%) RRT 1.74: 0.08%
  Impurities (%) RRT 1.84: 0.12%
  Total Impurities (%): 0.80%
  Water Content (%): 0.69%
[9]
  Appearance: U^a
  Assay (% free base equivalent): 98.0 % free base equivalent
  Enantiomeric Purity (%): 100.00%
  Impurities (%) RRT 0.26: 0.07%
  Impurities (%) RRT 0.51: 0.40%
  Impurities (%) RRT 1.53: 0.15%
  Impurities (%) RRT 1.74: 0.07%
  Impurities (%) RRT 1.84: 0.12%
  Total Impurities (%): 0.81%
  Water Content (%): 0.42%
[10]
  Assay (% free base equivalent): 98.7 % free base equivalent
  Enantiomeric Purity (%): 100.00%
  Impurities (%) RRT 0.26: 0.09%
  Impurities (%) RRT 0.51: 0.40%
  Impurities (%) RRT 0.71: 0.05%
  Impurities (%) RRT 1.53: 0.10%
  Impurities (%) RRT 1.74: 0.09%
  Impurities (%) RRT 1.84: 0.10%
  Total Impurities (%): 0.83%
  Water Content (%): 0.55%

Source: patent US7247627B2, “Salts and polymorphs of a pyrrole-substituted indolinone compound” (Pharmacia & Upjohn Company, priority 2003, dated 2007)
